From ChEMBL document CHEMBL5113522, “Discovery of CH7057288 as an Orally Bioavailable, Selective, and Potent pan-TRK Inhibitor” (J Med Chem, 2022)

How the values were obtained:
NIH3T3 [1] = test: Antiproliferative activity against […] NIH3T3 cells expressing MPRIP-NTRK1 assessed as cell growth inhibition incubated for 4 to 7 days by CellTiter-Glo Luminescent Cell Viability Assay; format: functional, cell-based; settings: Mus musculus
NIH3T3 [2] = test: Antitumor activity against mouse NIH3T3 cells implanted in mouse assessed as tumor growth inhibition at 0.63 mg/kg, po administered once daily for 11 days and measured on day 12 relative to control; format: functional; settings: NIH3T3, 288 h, time 12 day, read-out: TGI
[3] = biological target: Cyclin-dependent kinase 1 (Homo sapiens, UniProt P06493); test: Inhibition of CDK1 (unknown origin)
Insulin receptor = Insulin receptor (Homo sapiens, UniProt P06213); test: Inhibition of INSR (unknown origin)
Insulin receptor, sequence (P06213 28-758 limits assumed): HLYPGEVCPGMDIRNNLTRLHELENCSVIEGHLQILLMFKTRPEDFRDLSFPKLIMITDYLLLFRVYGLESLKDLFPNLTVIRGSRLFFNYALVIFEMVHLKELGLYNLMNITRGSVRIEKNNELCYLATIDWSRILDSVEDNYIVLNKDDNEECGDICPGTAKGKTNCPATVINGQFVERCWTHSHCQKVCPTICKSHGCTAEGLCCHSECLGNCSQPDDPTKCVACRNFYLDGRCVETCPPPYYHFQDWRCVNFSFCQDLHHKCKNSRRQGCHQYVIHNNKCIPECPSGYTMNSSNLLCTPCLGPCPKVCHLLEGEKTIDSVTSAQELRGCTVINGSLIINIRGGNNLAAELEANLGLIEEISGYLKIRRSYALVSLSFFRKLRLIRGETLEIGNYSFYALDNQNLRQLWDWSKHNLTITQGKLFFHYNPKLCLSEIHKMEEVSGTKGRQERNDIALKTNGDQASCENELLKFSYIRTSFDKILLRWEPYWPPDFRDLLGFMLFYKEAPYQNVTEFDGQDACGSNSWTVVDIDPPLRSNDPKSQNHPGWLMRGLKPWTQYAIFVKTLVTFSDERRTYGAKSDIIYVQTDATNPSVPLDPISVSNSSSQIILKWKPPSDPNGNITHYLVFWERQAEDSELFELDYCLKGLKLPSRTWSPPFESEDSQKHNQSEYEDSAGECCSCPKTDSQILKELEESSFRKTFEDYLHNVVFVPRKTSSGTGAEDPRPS
Insulin receptor, sequence (P06213 763-1382 limits assumed): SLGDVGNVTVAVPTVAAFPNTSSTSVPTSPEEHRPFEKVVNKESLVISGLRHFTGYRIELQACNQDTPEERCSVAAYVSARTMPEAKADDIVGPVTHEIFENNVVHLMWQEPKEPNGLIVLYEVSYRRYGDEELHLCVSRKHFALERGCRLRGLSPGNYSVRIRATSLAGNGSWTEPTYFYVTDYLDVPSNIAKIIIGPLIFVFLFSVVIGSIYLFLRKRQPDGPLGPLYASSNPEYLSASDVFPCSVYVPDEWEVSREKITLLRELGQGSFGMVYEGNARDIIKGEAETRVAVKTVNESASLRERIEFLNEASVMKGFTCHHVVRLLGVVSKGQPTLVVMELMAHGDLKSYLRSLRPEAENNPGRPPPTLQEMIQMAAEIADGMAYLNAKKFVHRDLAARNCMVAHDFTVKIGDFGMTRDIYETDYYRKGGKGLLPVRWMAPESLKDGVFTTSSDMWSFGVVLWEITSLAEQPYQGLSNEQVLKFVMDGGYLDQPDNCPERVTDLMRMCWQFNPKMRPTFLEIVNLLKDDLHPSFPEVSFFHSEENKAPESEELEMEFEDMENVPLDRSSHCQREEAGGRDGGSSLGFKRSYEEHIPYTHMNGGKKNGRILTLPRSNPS

NIH3T3 [4] = test: Antitumor activity against mouse NIH3T3 cells implanted in mouse assessed as tumor growth inhibition at 2.5 mg/kg, po administered once daily for 11 days and measured on day 12 relative to control; format: functional; settings: NIH3T3, 288 h, time 12 day, read-out: TGI
[5] = biological target: RAC-alpha serine/threonine-protein kinase (Homo sapiens, UniProt P31749); test: Inhibition of AKT1 (unknown origin)
[6] = Half life in Beagle dog at 1 mg/kg, iv by LC-MS analysis; format: ADME, organism-based, Canis lupus familiaris; settings: in vivo
[7] = biological target: Receptor tyrosine-protein kinase erbB-2 (Homo sapiens, UniProt P04626); test: Inhibition of HER2 (unknown origin)
[8] = AUC in Wistar Hannover rat at 1 mg/kg, po by LC-MS analysis; format: ADME, organism-based; set-up: dose 1 mg/kg, route po; settings: in vivo
[9] = biological target: cAMP-dependent protein kinase (PKA) (Homo sapiens, UniProt P22694+P17612+P22612); test: Inhibition of PKA (unknown origin); format: protein assay
[10] = Half life in Wistar Hannover rat at 1 mg/kg, po by LC-MS analysis; format: ADME, organism-based; settings: in vivo
NIH3T3 [11] = test: Antitumor activity against mouse NIH3T3 cells implanted in mouse assessed as tumor regression at 2.5 mg/kg, po administered once daily for 11 days and measured on day 12 relative to control; format: functional; settings: time 12 day
[12] = biological target: RAF proto-oncogene serine/threonine-protein kinase (Homo sapiens, UniProt P04049); test: Inhibition of RAF1 (unknown origin)
[13] = Antitumor activity against human CUTO-3 cells xenografted in mouse assessed as tumor growth inhibition at 10 mg/kg, po administered once daily for 11 days and measured on day 12 relative to control; format: functional; settings: CUTO-3, 288 h, time 12 day, read-out: TGI
[14] = biological target: Vascular endothelial growth factor receptor 2 (Homo sapiens, UniProt P35968); test: Inhibition of KDR (unknown origin)
CYP3A4 = CYP3A4 (Homo sapiens, UniProt P08684); test: Induction of CYP3A4 in human hepatocytes assessed as fold induction at 1 uM using testosterone as substrate preincubated with replacement of fresh medium containing compound every 24 hrs for 72 hrs followed by substrate addition and measured after 1 hr by LC-MS/MS analysis relative to control; format: ADME, cell-based, Hepatocyte; settings: probe testosterone, time 73 hrs, read-out: FC
[15] = biological target: BDNF/NT-3 growth factors receptor (Homo sapiens, UniProt Q16620); test: Inhibition of TRKB (unknown origin)
[16] = biological target: ALK tyrosine kinase receptor (Homo sapiens, UniProt Q9UM73); test: Inhibition of ALK (unknown origin)
NIH3T3 [17] = test: Antitumor activity against mouse NIH3T3 cells implanted in mouse assessed as tumor growth inhibition at 0.16 mg/kg, po administered once daily for 11 days and measured on day 12 relative to control; format: functional; settings: NIH3T3, 288 h, time 12 day, read-out: TGI
[18] = Oral bioavailability in Beagle dog at 1 mg/kg by LC-MS analysis; format: ADME, organism-based, Canis lupus familiaris; settings: in vivo
NIH3T3 [19] = test: Antitumor activity against mouse NIH3T3 cells implanted in mouse assessed as tumor regression at 10 mg/kg, po administered once daily for 11 days and measured on day 12 relative to control; format: functional; settings: time 12 day
[20] = biological target: Fibroblast growth factor receptor 2 (Homo sapiens, UniProt P21802); test: Inhibition of FGFR2 (unknown origin)
[21] = AUC in Beagle dog at 1 mg/kg, po by LC-MS analysis; format: ADME, organism-based, Canis lupus familiaris; set-up: dose 1 mg/kg, route po; settings: in vivo
[22] = biological target: Tyrosine-protein kinase JAK2 (Homo sapiens, UniProt O60674); test: Inhibition of JAK2 (unknown origin)
Tyrosine-protein kinase JAK2, sequence (O60674 whole entry): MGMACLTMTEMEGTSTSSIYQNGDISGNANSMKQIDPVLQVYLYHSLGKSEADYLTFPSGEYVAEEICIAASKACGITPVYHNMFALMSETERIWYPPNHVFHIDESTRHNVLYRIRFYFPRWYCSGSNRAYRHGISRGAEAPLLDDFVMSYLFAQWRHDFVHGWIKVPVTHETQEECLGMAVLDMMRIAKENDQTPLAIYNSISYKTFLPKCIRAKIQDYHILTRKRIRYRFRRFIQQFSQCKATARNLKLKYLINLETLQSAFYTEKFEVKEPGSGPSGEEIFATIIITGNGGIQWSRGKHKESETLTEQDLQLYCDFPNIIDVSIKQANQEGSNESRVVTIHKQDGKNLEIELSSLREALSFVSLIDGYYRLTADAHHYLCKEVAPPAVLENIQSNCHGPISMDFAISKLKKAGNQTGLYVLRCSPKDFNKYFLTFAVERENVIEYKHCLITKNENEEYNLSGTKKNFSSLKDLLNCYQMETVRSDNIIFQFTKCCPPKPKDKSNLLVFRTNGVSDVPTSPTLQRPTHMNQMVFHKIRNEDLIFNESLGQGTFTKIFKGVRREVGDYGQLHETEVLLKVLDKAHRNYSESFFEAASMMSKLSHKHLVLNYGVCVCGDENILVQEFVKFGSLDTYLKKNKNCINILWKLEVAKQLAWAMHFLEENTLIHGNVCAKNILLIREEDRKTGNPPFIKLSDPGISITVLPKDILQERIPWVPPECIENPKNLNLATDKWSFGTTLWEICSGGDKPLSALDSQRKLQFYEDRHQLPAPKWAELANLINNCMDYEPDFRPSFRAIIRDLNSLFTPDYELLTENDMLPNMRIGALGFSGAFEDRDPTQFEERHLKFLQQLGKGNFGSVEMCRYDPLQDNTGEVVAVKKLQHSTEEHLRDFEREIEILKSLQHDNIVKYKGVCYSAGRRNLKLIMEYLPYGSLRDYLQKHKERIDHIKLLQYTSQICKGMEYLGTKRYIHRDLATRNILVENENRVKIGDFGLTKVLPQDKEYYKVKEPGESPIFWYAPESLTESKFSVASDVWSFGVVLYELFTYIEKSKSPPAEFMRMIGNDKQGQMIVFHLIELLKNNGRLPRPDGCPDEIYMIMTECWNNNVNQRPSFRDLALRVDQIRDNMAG

[23] = Volume of distribution at steady state in Wistar Hannover rat at 1 mg/kg, iv by LC-MS analysis; format: ADME, organism-based; settings: in vivo, read-out: Vdss
[24] = Oral bioavailability in Wistar Hannover rat at 1 mg/kg by LC-MS analysis; format: ADME, organism-based; settings: in vivo
NIH3T3 [25] = test: Antitumor activity against mouse NIH3T3 cells implanted in mouse assessed as tumor growth inhibition at 10 mg/kg, po administered once daily for 11 days and measured on day 12 relative to control; format: functional; settings: NIH3T3, 288 h, time 12 day, read-out: TGI
[26] = biological target: Proto-oncogene tyrosine-protein kinase Src (Homo sapiens, UniProt P12931); test: Inhibition of Src (unknown origin)
[27] = biological target: NT-3 growth factor receptor (Homo sapiens, UniProt Q16288); test: Inhibition of TRKC (unknown origin)
[28] = Cmax in Beagle dog at 1 mg/kg, po by LC-MS analysis; format: ADME, organism-based, Canis lupus familiaris; set-up: dose 1 mg/kg, route po; settings: in vivo
[29] = Volume of distribution at steady state in Beagle dog at 1 mg/kg, iv by LC-MS analysis; format: ADME, organism-based, Canis lupus familiaris; settings: in vivo, read-out: Vdss
[30] = biological target: High affinity nerve growth factor receptor (Homo sapiens, UniProt P04629); test: Inhibition of TRKA (unknown origin)
[31] = Half life in Wistar Hannover rat at 1 mg/kg, iv by LC-MS analysis; format: ADME, organism-based; settings: in vivo
[32] = biological target: Epidermal growth factor receptor (Homo sapiens, UniProt P00533); test: Inhibition of EGFR (unknown origin)
Epidermal growth factor receptor, sequence (P00533 whole entry): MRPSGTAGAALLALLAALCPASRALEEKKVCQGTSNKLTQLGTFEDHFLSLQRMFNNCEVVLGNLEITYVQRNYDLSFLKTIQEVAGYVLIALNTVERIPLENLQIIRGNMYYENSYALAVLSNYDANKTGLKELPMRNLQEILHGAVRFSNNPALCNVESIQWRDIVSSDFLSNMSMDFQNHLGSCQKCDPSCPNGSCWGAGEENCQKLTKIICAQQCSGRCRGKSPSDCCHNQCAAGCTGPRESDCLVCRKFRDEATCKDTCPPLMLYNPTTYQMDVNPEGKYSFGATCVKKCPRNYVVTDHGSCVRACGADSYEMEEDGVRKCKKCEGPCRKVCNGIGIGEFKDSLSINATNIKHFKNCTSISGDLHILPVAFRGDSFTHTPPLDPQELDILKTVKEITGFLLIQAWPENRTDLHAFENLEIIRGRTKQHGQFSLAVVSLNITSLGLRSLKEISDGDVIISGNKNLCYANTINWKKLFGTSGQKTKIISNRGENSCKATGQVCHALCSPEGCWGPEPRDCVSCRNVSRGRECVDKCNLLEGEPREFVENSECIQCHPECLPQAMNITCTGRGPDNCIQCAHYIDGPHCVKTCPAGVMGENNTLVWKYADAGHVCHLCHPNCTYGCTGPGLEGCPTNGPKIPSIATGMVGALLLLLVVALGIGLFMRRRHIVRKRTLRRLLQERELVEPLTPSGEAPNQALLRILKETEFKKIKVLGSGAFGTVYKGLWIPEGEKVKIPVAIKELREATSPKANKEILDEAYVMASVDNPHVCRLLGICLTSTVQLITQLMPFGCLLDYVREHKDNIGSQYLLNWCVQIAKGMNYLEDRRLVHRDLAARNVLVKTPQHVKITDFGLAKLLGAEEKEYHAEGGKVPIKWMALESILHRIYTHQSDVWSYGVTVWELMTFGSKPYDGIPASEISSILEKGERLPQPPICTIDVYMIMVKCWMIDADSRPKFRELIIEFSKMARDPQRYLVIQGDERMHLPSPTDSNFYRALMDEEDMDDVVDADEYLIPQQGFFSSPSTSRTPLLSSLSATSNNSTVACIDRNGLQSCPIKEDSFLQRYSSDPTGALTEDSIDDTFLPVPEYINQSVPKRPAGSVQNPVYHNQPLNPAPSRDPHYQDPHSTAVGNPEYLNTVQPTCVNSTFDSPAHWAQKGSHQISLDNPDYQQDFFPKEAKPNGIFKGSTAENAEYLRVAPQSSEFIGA

[33] = biological target: Protein kinase C alpha type (Homo sapiens, UniProt P17252); test: Inhibition of PKCalpha (unknown origin)
[34] = Half life in Beagle dog at 1 mg/kg, po by LC-MS analysis; format: ADME, organism-based, Canis lupus familiaris; settings: in vivo
[35] = Toxicity in mouse assessed as body weight loss at 10 mg/kg, po administered once daily for 11 days and measured on day 12; format: organism-based; settings: in vivo, 288 h, time 12 day
[36] = Cmax in Wistar Hannover rat at 1 mg/kg, po by LC-MS analysis; format: ADME, organism-based; set-up: dose 1 mg/kg, route po; settings: in vivo
[37] = biological target: Hepatocyte growth factor receptor (Homo sapiens, UniProt P08581); test: Inhibition of MET (unknown origin)
[38] = Clearance in Beagle dog at 1 mg/kg, iv by LC-MS analysis; format: ADME, organism-based, Canis lupus familiaris; settings: in vivo
[39] = Clearance in Wistar Hannover rat at 1 mg/kg, iv by LC-MS analysis; format: ADME, organism-based; settings: in vivo
[40] = biological target: Tyrosine-protein kinase Lck (Homo sapiens, UniProt P06239); test: Inhibition of LCK (unknown origin)
[41] = biological target: Serine/threonine-protein kinase Chk1 (Homo sapiens, UniProt O14757); test: Inhibition of CHK1 (unknown origin)
Serine/threonine-protein kinase Chk1, sequence (O14757 whole entry): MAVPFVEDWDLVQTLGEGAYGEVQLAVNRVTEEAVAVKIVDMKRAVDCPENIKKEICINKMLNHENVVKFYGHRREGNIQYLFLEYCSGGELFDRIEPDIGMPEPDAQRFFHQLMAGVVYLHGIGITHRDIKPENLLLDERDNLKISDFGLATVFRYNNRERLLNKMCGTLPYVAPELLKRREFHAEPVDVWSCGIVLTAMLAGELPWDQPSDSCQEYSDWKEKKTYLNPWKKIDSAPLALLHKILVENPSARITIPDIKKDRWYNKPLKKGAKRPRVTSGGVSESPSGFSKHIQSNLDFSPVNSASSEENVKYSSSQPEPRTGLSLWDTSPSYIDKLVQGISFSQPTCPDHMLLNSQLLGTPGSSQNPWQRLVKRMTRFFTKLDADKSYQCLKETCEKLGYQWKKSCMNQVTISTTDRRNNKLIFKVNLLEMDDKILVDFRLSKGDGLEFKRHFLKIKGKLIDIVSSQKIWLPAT

With `Cc1cc(C(=O)NC(C)(C)C)cc(C#Cc2ccc3c4c(oc3c2)C(C)(C)c2cc(NS(C)(=O)=O)ccc2C4=O)n1` the IC50 (NIH3T3 [1]) was 0.0084 µM, the inhibition in vivo at 0.63 mg/kg (NIH3T3 [2]) was 16% and the IC50 [3] was > 10 µM. The IC50 (Insulin receptor) was > 10 µM, the inhibition in vivo at 2.5 mg/kg (NIH3T3 [4]) was 102% and the IC50 [5] was > 10 µM. For the same compound, the half-life [6] was 12.7 h, the IC50 [7] was > 10 µM and the AUC [8] was 5950 ng·h/mL. The IC50 [9] was > 10 µM, the half-life [10] was 9.01 h and the Activity (NIH3T3 [11]) was 26%. For the same compound, the IC50 [12] was > 10 µM, the inhibition in vivo at 10 mg/kg [13] was 171% and the IC50 [14] was > 1 µM. The fold induction at 1 h, 1 µM (CYP3A4) was 3, the IC50 [15] was 0.002 µM and the IC50 [16] was > 10 µM. The inhibition in vivo at 0.16 mg/kg (NIH3T3 [17]) was 14%, the bioavailability [18] was 97.5% and the Activity (NIH3T3 [19]) was 72%. The IC50 [20] was > 10 µM, the AUC [21] was 11000 ng·h/mL and the IC50 [22] was > 10 µM. For the same compound, the Vd [23] was 0.587 L/kg, the bioavailability [24] was 38% and the inhibition in vivo at 10 mg/kg (NIH3T3 [25]) was 105%. For the same compound, the IC50 [26] was > 10 µM, the IC50 [27] was 0.0028 µM and the Cmax [28] was 763 ng/mL. It also gave a Vd [29] of 1.69 L/kg, an IC50 [30] of 0.0012 µM and a half-life [31] of 7.49 h. For the same compound, the IC50 [32] was > 10 µM, the IC50 [33] was > 10 µM and the half-life [34] was 15.2 h. The Activity [35] was “Non-Toxic”, the Cmax [36] was 581 ng/mL and the IC50 [37] was > 10 µM. The clearance [38] was 1.48 mL/min/kg, the clearance [39] was 1.07 mL/min/kg and the IC50 [40] was 0.3 µM. For the same compound, the IC50 [41] was > 10 µM.
For `CC1(C)c2cc(OCCN3CCOCC3)ccc2C(=O)c2c1oc1cc(C#Cc3cc(OCC4CC4)ccn3)ccc21`, the IC50 [3] was > 10 µM, the IC50 (Insulin receptor) was > 10 µM and the IC50 [5] was > 10 µM. For the same compound, the IC50 [7] was > 10 µM, the IC50 [9] was > 10 µM and the IC50 [12] was > 10 µM. For the same compound, the IC50 [14] was 0.757 µM, the fold induction at 1 h, 1 µM (CYP3A4) was 6.5 and the IC50 [15] was 0.0081 µM. The IC50 [16] was 2.8 µM, the IC50 [20] was > 10 µM and the IC50 [22] was > 10 µM. It also gave an IC50 [26] of 2 µM, an IC50 [27] of 0.0069 µM and an IC50 [30] of 0.0045 µM. The IC50 [32] was > 10 µM, the IC50 [33] was > 10 µM and the IC50 [37] was > 10 µM. The IC50 [41] was > 10 µM.
